The text below walks through data of ChEMBL document CHEMBL1201862, “PubChem BioAssay data set” (2004).

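Grown in 96-well plates, cells were treated for 48 hours with each compound at five concentrations. Insufficient inhibition: endpoint recorded as highest concentration tested. Here, GI50 denotes the concentration required for 50% inhibition of growth.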 The source made the active and inactive calls. Rule as the data show it: active = GI50 up to about 1.1 µM and inactive = higher.

Test systems include MCF7; NCI/ADR-RES; XF498; SN12C; SK-OV-3; MOLT-4; HL-60; SNB-78; A549; A498; HOP-18; SNB-19; SF-539; TK-10; ACHN; LXFL 529; CAKI-1; M14.
Holding throughout (assay): NCI anticancer screen, dose series, 48 h

In the case of `CCC(C)C1NC(=O)CNC(=O)C2Cc3c([nH]c4cc(O)ccc34)[S+]([O-])CC(NC(=O)CNC1=O)C(=O)NC(CC(=O)O)C(=O)N1CC(O)CC1C(=O)NC(C(C)C(O)CO)C(=O)N2` (stereo unspecified), the GI50 was 5.12 µM (inactive) in the experiment with MCF7; 3.97 µM (inactive) in the experiment on NCI/ADR-RES; 1.16 µM (inactive) with XF498; 4.63 µM (inactive) with SN12C; 13.2 µM (inactive) in the experiment on SK-OV-3; 3.72 µM (inactive) in the experiment on MOLT-4. The GI50 was 28.6 µM (inactive) in the experiment on HL-60; 0.664 µM (active) in the experiment on SNB-78; 4.58 µM (inactive) with A549; 2.83 µM (inactive) with A498; 25.8 µM (inactive) in the experiment on HOP-18; 1.3 µM (inactive) with SNB-19. For the same compound, the GI50 with SF-539 is 0.45 µM (active).

On to `CCOC(=O)C(C#N)(Cc1c[nH]c2ccccc12)NC(C)=O` (stereo unspecified), for which the GI50 with TK-10, with SN12C, in the experiment on SK-OV-3, with ACHN, with MOLT-4 and with HL-60 was > 100 µM (inactive) throughout. The GI50 with LXFL 529, in the experiment on CAKI-1 and in the experiment on M14 was > 100 µM (inactive) each time.

Consider `CN(C)CCNC(=O)c1cccc2[nH]c(-c3ccccn3)nc12`, for which the GI50 in the experiment on MCF7 was 31.5 µM (inactive); in the experiment with NCI/ADR-RES, 26.1 µM (inactive); in the experiment on XF498, 36.6 µM (inactive); with SN12C, 34.8 µM (inactive); with SK-OV-3, 32.6 µM (inactive); in the experiment on MOLT-4, 20.7 µM (inactive). Also, the GI50 was 33.7 µM (inactive) with HL-60; 34.9 µM (inactive) in the experiment with SNB-78; 36.2 µM (inactive) in the experiment with A549; 21.5 µM (inactive) in the experiment on CAKI-1; 36.6 µM (inactive) in the experiment with A498; 29 µM (inactive) with HOP-18. The figures for the GI50 in the experiment on SNB-19 and in the experiment with SF-539 were 42.2 µM (inactive) and 43.5 µM (inactive), respectively.
